Assay results: patent publication US6369083B1, “2-methoxyimino-2 (pyrinyloxymethyl) phenyl acetamides with polyether derivatives on the pyridine ring” (Dow AgroSciences LLC, priority 1998, dated 2002)

Assays:
Type in all cases: in vivo
[1] = test system: Erysiphe graminis; assay: Powdery Mildew of Wheat (ERYSGT); conditions: wheat (cultivar Monon), inoculated, sprayed at 25 ppm after 48 hours
Experimental: Compound Formulation: […] Final treatment volumes were obtained by adding nine volumes 0.05kOO aqueous Tween-20 or Triton X-100, depending upon the pathogen. Powdery Mildew of Wheat (Erysiphe graminis-[…]): Wheat (cultivar Monon) was grown in a soilless peat-based potting mixture (Metromix) until the seedlings were 1-2 leaf (BBCH 12). These plants were then inoculated with Erysiphe graminis by dusting spores from stock plants onto the test plants. After 48 hours the plants were sprayed to run off with the test compound at a rate of 25 ppm and then kept in the greenhouse until disease developed on the untreated control plants. The following table presents the activity of typical compounds of the present invention when evaluated in these experiments. The effectiveness of the test compounds in controlling disease was rated using the following scale: […]

[2] = test system: Septoria tritici; assay: Septoria leaf spot (SEPTTR); conditions: wheat (cultivar Monon), sprayed at 100 ppm, inoculated after 24 hours
Experimental: Compound Formulation: […] Final treatment volumes were obtained by adding nine volumes 0.05kOO aqueous Tween-20 or Triton X-100, depending upon the pathogen. Septoria leaf spot (Septoria tritici-[…]): Wheat (cultivar Monon) was grown from seed in a soilless peat-based potting mixture (Metromix) until the seedlings were 1-2 leaf (BECH 12). These plants were then sprayed to run off with the test compound at a rate of 100 ppm. After 24 hours the test plants were inoculated with an aqueous spore suspension of Septoria tritici. The plants were then transferred to the greenhouse until disease developed on the untreated control plants. The following table presents the activity of typical compounds of the present invention when evaluated in these experiments. The effectiveness of the test compounds in controlling disease was rated using the following scale: […]

[3] = test system: Plasmopara viticola; assay: Downy Mildew of Grape (PLASVI), 96 hour protectant; conditions: grape vines (cultivar Carignane), sprayed at 100 ppm, inoculated after 96 hours (protectant)
Experimental: Compound Formulation: […] Final treatment volumes were obtained by adding nine volumes 0.05kOO aqueous Tween-20 or Triton X-100, depending upon the pathogen. Downy Mildew of Grape (Plasmogara viticola-[…]) (96 Hour Protectant): Vines (cultivar Carignane) were grown from seed in a soilless peat-based potting mixture (Metromix) until the seedlings were 10-20 cm tall. These plants were then sprayed to run off with the test compound at a rate of 100 ppm. After 96 hours the test plants were inoculated by spraying with an aqueous sporangia suspension of Plasmopara viticola. The plants were then transferred to the greenhouse until disease developed on the untreated control plants. The following table presents the activity of typical compounds of the present invention when evaluated in these experiments. The effectiveness of the test compounds in controlling disease was rated using the following scale: […]

SMILES | ERYSGT control of plant disease [1] | SEPTTR control of plant disease [2] | PLASVI control of plant disease [3]
CNC(=O)C(=NOC)c1ccccc1COc1cccc(Sc2cccc(OC)c2)n1 [Compound 39] | ++ (++ = 75-100 % control of plant disease) |  | 
CNC(=O)C(=NOC)c1ccccc1COc1cccc(OCCCOCCCOC)n1 [Compound 71] |  | − (− = 0-24% control of plant disease) | 
CNC(=O)C(=NOC)c1ccccc1COc1nc(OCc2ccco2)c(Cl)cc1Cl [Compound 3] | + (+ = 25-74% control of plant disease) |  | ++ (++ = 75-100 % control of plant disease)
CCCCCOCCOc1cccc(OCc2c(Cl)cccc2C(=NOC)C(=O)NC)n1 [Compound 76] |  | ++ (++ = 75-100 % control of plant disease) | 
CCCOc1ccc(Sc2cccc(OCc3ccccc3C(=NOC)C(=O)NC)n2)cc1 [Compound 87] | ++ (++ = 75-100 % control of plant disease) |  | 
CNC(=O)C(=NOC)c1ccccc1COc1cccc(OCCOCC2CO2)n1 (stereo not drawn) [Compound 74] |  | ++ (++ = 75-100 % control of plant disease) | 
CNC(=O)C(=NOC)c1ccccc1COc1cccc(Sc2cccs2)n1 [Compound 15] | ++ (++ = 75-100 % control of plant disease) |  | ++ (++ = 75-100 % control of plant disease)
CNC(=O)C(=NOC)c1ccccc1COc1cccc(OCC(C)OC)n1 (stereo not drawn) [Compound 30] | ++ (++ = 75-100 % control of plant disease) |  | ++ (++ = 75-100 % control of plant disease)
CNC(=O)C(=NOC)c1ccccc1COc1cccc(OCc2ccc(OC)cc2)n1 [Compound 83] |  | ++ (++ = 75-100 % control of plant disease) | 
CNC(=O)C(=NOC)c1ccccc1COc1cccc(OCCOC)n1 [Compound 25] | ++ (++ = 75-100 % control of plant disease) |  | ++ (++ = 75-100 % control of plant disease)
CCSCCOc1cccc(OCc2ccccc2C(=NOC)C(=O)NC)n1 [Compound 45] | + (+ = 25-74% control of plant disease) |  | ++ (++ = 75-100 % control of plant disease)
CNC(=O)C(=NOC)c1ccccc1COc1cccc(Sc2ccccc2OC(F)(F)F)n1 [Compound 41] | + (+ = 25-74% control of plant disease) |  | ++ (++ = 75-100 % control of plant disease)
CCCOC(C)COc1nc(OCc2ccccc2C(=NOC)C(=O)NC)c(Cl)cc1Cl (stereo not drawn) [Compound 26] | ++ (++ = 75-100 % control of plant disease) |  | + (+ = 25-74% control of plant disease)
CCOCCNc1nc(OCc2ccccc2C(=NOC)C(=O)NC)c(Cl)cc1Cl [Compound 23] | ++ (++ = 75-100 % control of plant disease) |  | ++ (++ = 75-100 % control of plant disease)
CNC(=O)C(=NOC)c1ccccc1COc1cccc(OCC2COC(C(F)(F)F)(C(F)(F)F)O2)n1 (stereo not drawn) [Compound 11] |  |  | ++ (++ = 75-100 % control of plant disease)
CCCCOCCOc1cccc(OCc2ccccc2C(=NOC)C(=O)NC)n1 [Compound 46] | + (+ = 25-74% control of plant disease) |  | ++ (++ = 75-100 % control of plant disease)
CCOCCOc1cccc(OCc2c(Cl)cccc2C(=NOC)C(=O)NC)n1 [Compound 63] |  |  | ++ (++ = 75-100 % control of plant disease)
CCCOCCOc1nc(OCc2ccccc2C(=NOC)C(=O)NC)c(Cl)cc1Cl [Compound 29] | + (+ = 25-74% control of plant disease) |  | ++ (++ = 75-100 % control of plant disease)
CNC(=O)C(=NOC)c1ccccc1COc1cccc(OCc2ccco2)n1 [Compound 8] | − (− = 0-24% control of plant disease) |  | ++ (++ = 75-100 % control of plant disease)
CNC(=O)C(=NOC)c1ccccc1COc1cccc(Sc2ccccc2OC)n1 [Compound 42] | ++ (++ = 75-100 % control of plant disease) |  | ++ (++ = 75-100 % control of plant disease)
CNC(=O)C(=NOC)c1ccccc1COc1cccc(OCC2CCCCO2)n1 (stereo not drawn) [Compound 9] | + (+ = 25-74% control of plant disease) |  | ++ (++ = 75-100 % control of plant disease)

SMILES | ERYSGT control of plant disease [1] | SEPTTR control of plant disease [2] | PLASVI control of plant disease [3]
CNC(=O)C(=NOC)c1ccccc1COc1nc(OCc2ccco2)c(Cl)cc1Cl [Compound 4] | − (− = 0-24% control of plant disease) |  | − (− = 0-24% control of plant disease)
CNC(=O)C(=NOC)c1ccccc1COc1cccc(OCCOc2ccccc2)n1 [Compound 49] | ++ (++ = 75-100 % control of plant disease) |  | ++ (++ = 75-100 % control of plant disease)
CCCOCCOc1cccc(OCc2ccccc2C(=NOC)C(=O)NC)n1 [Compound 31] | ++ (++ = 75-100 % control of plant disease) |  | ++ (++ = 75-100 % control of plant disease)
CNC(=O)C(=NOC)c1ccccc1COc1cccc(Sc2nnc(SC)s2)n1 [Compound 12] | − (− = 0-24% control of plant disease) |  | − (− = 0-24% control of plant disease)
CNC(=O)C(=NOC)c1ccccc1COc1cccc(OCC2COC(C)(C(F)(F)F)O2)n1 (stereo not drawn) [Compound 6] | ++ (++ = 75-100 % control of plant disease) |  | 
CNC(=O)C(=NOC)c1ccccc1COc1cccc(SCc2ccc(OC)cc2)n1 [Compound 34] | ++ (++ = 75-100 % control of plant disease) |  | ++ (++ = 75-100 % control of plant disease)
CNC(=O)C(=NOC)c1ccccc1COc1cccc(OCC2CCCO2)n1 (stereo not drawn) [Compound 10] | ++ (++ = 75-100 % control of plant disease) |  | + (+ = 25-74% control of plant disease)
CCCOCCOc1cccc(OCc2c(F)cccc2C(=NOC)C(=O)NC)n1 [Compound 59] |  |  | ++ (++ = 75-100 % control of plant disease)
CNC(=O)C(=NOC)c1ccccc1COc1cccc(Oc2ccc(OC)cc2)n1 [Compound 38] | ++ (++ = 75-100 % control of plant disease) |  | 
CCSCCSc1cccc(OCc2ccccc2C(=NOC)C(=O)NC)n1 [Compound 50] | − (− = 0-24% control of plant disease) |  | ++ (++ = 75-100 % control of plant disease)
CCCOC(C)COc1cccc(OCc2ccccc2C(=NOC)C(=O)NC)n1 (stereo not drawn) [Compound 32] | ++ (++ = 75-100 % control of plant disease) |  | 
CCCCSCCOc1cccc(OCc2ccccc2C(=NOC)C(=O)NC)n1 [Compound 47] | ++ (++ = 75-100 % control of plant disease) |  | ++ (++ = 75-100 % control of plant disease)
CNC(=O)C(=NOC)c1ccccc1COc1nc(OCCOC)c(Cl)cc1Cl [Compound 33] | + (+ = 25-74% control of plant disease) |  | ++ (++ = 75-100 % control of plant disease)
CNC(=O)C(=NOC)c1ccccc1COc1cccc(Sc2ccc(SC)cc2)n1 [Compound 43] | − (− = 0-24% control of plant disease) |  | ++ (++ = 75-100 % control of plant disease)
CCCCSCCOc1cccc(OCc2ccccc2C(=NOC)C(=O)NC)n1 [Compound 48] | − (− = 0-24% control of plant disease) |  | + (+ = 25-74% control of plant disease)
CNC(=O)C(=NOC)c1ccccc1COc1cccc(OCC2(C)COC2)n1 [Compound 7] | ++ (++ = 75-100 % control of plant disease) |  | + (+ = 25-74% control of plant disease)
CCOc1cccc(Oc2cccc(OCc3ccccc3C(=NOC)C(=O)NC)n2)c1 [Compound 67] |  |  | ++ (++ = 75-100 % control of plant disease)
CCCOCCOc1cccc(OCc2ccccc2C(=NOC)C(=O)NC)n1 [Compound 36] | + (+ = 25-74% control of plant disease) |  | ++ (++ = 75-100 % control of plant disease)
CNC(=O)C(=NOC)c1ccccc1COc1nc(OCC(C)OC)c(Cl)cc1Cl (stereo not drawn) [Compound 28] | ++ (++ = 75-100 % control of plant disease) |  | ++ (++ = 75-100 % control of plant disease)
CNC(=O)C(=NOC)c1ccccc1COc1cccc(OCCOCc2ccccc2)n1 [Compound 51] | ++ (++ = 75-100 % control of plant disease) |  | ++ (++ = 75-100 % control of plant disease)
